Results as given in patent US20250002507A1, “7,8-DIHYDRO-5H-1,6-NAPHTHYRIDINE DERIVATIVES AS POSITIVE ALLOSTERIC MODULATORS OF THE MUSCARINIC ACETYLCHOLINE RECEPTOR M4 FOR TREATING NEUROLOGICAL AND PSYCHIATRIC DISORDERS” (Vanderbilt University, priority 2021, published 2025).

Biological target: T1, Human M4 (Homo sapiens, UniProt P08173)
T1 construct: expressed in transfected cells
T1 sequence (P08173 1-479): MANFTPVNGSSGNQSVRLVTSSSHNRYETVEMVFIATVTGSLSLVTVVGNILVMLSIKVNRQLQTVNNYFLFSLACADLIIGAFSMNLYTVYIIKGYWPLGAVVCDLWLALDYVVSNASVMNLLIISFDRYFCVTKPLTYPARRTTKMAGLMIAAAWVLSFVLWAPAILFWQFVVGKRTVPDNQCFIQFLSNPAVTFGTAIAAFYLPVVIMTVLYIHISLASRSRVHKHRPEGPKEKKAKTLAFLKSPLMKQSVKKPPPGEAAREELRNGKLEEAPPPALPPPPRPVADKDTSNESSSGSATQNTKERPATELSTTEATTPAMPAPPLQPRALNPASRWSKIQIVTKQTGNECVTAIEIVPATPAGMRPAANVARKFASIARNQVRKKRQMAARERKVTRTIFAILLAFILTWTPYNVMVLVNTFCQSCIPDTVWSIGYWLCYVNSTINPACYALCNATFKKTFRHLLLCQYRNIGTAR
Assay: mAChR M4 cell-based functional assay (calcium flux, potentiation of EC20 acetylcholine response), hM4-Gqi5 CHO-K1 cells
Settings: for Emax at 30 µM: CHO-K1, % ACh maximum at 30 μM, human M4, read-out: Emax; for EC50: hM4-Gqi5 CHO-K1 cells, calcium flux, PAM of EC20 acetylcholine, read-out: Human M4 EC50
Description: Human and rat M4 cDNAs, along with the chimeric G protein Gqi5, were transfected into Chinese hamster ovary (CHO-K1) cells purchased from the American Type Culture Collection using Lipofectamine2000. hM4-Gqi5 cells were grown in Ham's F-12 medium containing 10% heat-inactivated fetal bovine serum (FBS), 20 mM HEPES, 50 μg/mL G418 sulfate, and 500 μg/mL Hygromycin B. rM4-Gqi5 cells were grown in DMEM containing 10% heat-inactivated FBS, 20 mM HEPES, 400 μg/mL G418 sulfate, and 500 μg/mL Hygromycin B.
For high throughput measurement of agonist-evoked increases in intracellular calcium, CHO-K1 cells stably expressing muscarinic receptors were plated in growth medium lacking G418 and hygromycin at 15,000 cells/20 μL/well in Greiner 384-well black-walled, tissue culture (TC)-treated, clear-bottom plates (VWR). Cells were incubated overnight at 37° C. and 5% CO2. The next day, cells were washed using an ELX 405 (BioTek) with assay buffer; the final volume was then aspirated to 20 μL. Next, 20 μL of a 2.3 μM stock of Fluo-4/acetoxymethyl ester (Invitrogen, Carlsbad, CA), prepared as a 2.3 mM stock in DMSO and mixed in a 1:1 ratio with 10% (w/v) Pluronic F-127 and diluted in assay buffer, was added to the wells and the cell plates were incubated for 50 min at 37° C. and 5% CO2. Dye was removed by washing with the ELX 405 and the final volume was aspirated to 20 μL. Compound master plates were formatted in an 11 point concentration-response curve (CRC) format (1:3 dilutions) in 100% DMSO with a starting concentration of 10 mM using a BRAVO liquid handler (Agilent). Test compound CRCs were then transferred to daughter plates (240 nL) using the Echo acoustic plate reformatter (Labcyte, Sunnyvale, CA) and then diluted into assay buffer (40 μL) to a 2× stock using a Thermo Fisher Combi (Thermo Fisher Scientific, Waltham, MA).
Calcium flux was measured using the Functional Drug Screening System (FDSS) 6000 or 7000 (Hamamatsu Corporation, Tokyo, Japan) as an increase in the fluorescent static ratio. Compounds were applied to cells (20 μL, 2×) using the automated system of the FDSS at 2-4 seconds into the protocol and the data were collected at 1 Hz. At 144 seconds, 10 μL of an EC20 concentration of the muscarinic receptor agonist acetylcholine was added (5×), followed by the addition of 12 μL of an EC80 concentration of acetylcholine at the 230 second time point (5×). Agonist activity was analyzed as a concentration-dependent increase in calcium mobilization upon compound addition. Positive allosteric modulator activity was analyzed as a concentration-dependent increase in the EC20 acetylcholine response. Antagonist activity was analyzed as a concentration-dependent decrease in the EC80 acetylcholine response. Concentration-response curves were generated using a four-parameter logistical equation in XLFit curve fitting software (IDBS, Bridgewater, NJ) for Excel (Microsoft, Redmond, WA) or Prism (GraphPad Software, Inc., San Diego, CA).
Compounds were synthesized as described above. Activity (EC50 and Emax) was determined in the mAChR M4 cell-based functional assay as described above and the data are shown in Tables 2-4. The compound number corresponds to the compound numbers used in Table 1.

| SMILES | Emax at 30 µM | EC50 |
| --- | --- | --- |
| Cc1c(N2CCc3ncc(Nc4c(F)cccc4C#N)cc3C2)nn2cnnc2c1C [Compound 46, 2-[[6-(7,8-dimethyl-[1,2,4]triazolo[4,3-b]pyridazin-6-yl)-7,8-dihydro-5H-1,6-naphthyridin-3-yl]amino]-3-fluoro-benzonitrile] | 64% | 611 nM |
| Cc1c(N2CCc3ncc(Nc4ccccc4N(C)C)cc3C2)nn2cnnc2c1C [Compound 51, N1-[6-(7,8-dimethyl-[1,2,4]triazolo[4,3-b]pyridazin-6-yl)-7,8-dihydro-5H-1,6-naphthyridin-3-yl]-N2,N2-dimethyl-benzene-1,2-diamine] | 67% | 402 nM |
| Cc1c(N2CCc3ncc(Nc4ccccc4C#N)cc3C2)nn2cnnc2c1C [Compound 52, 2-[[6-(7,8-dimethyl-[1,2,4]triazolo[4,3-b]pyridazin-6-yl)-7,8-dihydro-5H-1,6-naphthyridin-3-yl]amino]benzonitrile] | 76% | 381 nM |
| Cc1c(N2CCc3ncc(C(=O)N4CCCC4)cc3C2)nn2cnnc2c1C [Compound 56, [6-(7,8-dimethyl-[1,2,4]triazolo[4,3-b]pyridazin-6-yl)-7,8-dihydro-5H-1,6-naphthyridin-3-yl]-pyrrolidin-1-yl-methanone] | 91% |  |
| Cc1c(N2CCc3ncc(C(=O)NC4CC4)cc3C2)nn2cnnc2c1C [Compound 57, N-cyclopropyl-6-(7,8-dimethyl-[1,2,4]triazolo[4,3-b]pyridazin-6-yl)-7,8-dihydro-5H-1,6-naphthyridine-3-carboxamide] | 60% | 7750 nM |
| Cc1c(N2CCc3ncc(C(=O)N4CCOCC4)cc3C2)nn2cnnc2c1C [Compound 58, [6-(7,8-dimethyl-[1,2,4]triazolo[4,3-b]pyridazin-6-yl)-7,8-dihydro-5H-1,6-naphthyridin-3-yl]-morpholino-methanone] | 51% |  |
| Cc1c(N2CCc3ncc(C(=O)Nc4ccccc4F)cc3C2)nn2cnnc2c1C [Compound 59, 6-(7,8-dimethyl-[1,2,4]triazolo[4,3-b]pyridazin-6-yl)-N-(2-fluorophenyl)-7,8-dihydro-5H-1,6-naphthyridine-3-carboxamide] | 89% | 695 nM |
| Cc1c(N2CCc3ncc(-c4cnn(Cc5ccccc5)c4)cc3C2)nn2cnnc2c1C [Compound 63, 3-(1-benzylpyrazol-4-yl)-6-(7,8-dimethyl-[1,2,4]triazolo[4,3-b]pyridazin-6-yl)-7,8-dihydro-5H-1,6-naphthyridine] | 94% | 262 nM |
| Cc1c(N2CCc3ncc(Nc4c(F)cccc4Cl)cc3C2)nn2cnnc2c1C [Compound 64, N-(2-chloro-6-fluoro-phenyl)-6-(7,8-dimethyl-[1,2,4]triazolo[4,3-b]pyridazin-6-yl)-7,8-dihydro-5H-1,6-naphthyridin-3-amine] | 96% | 788 nM |
| Cc1c(N2CCc3ncc(Nc4cccc(C(F)(F)F)c4F)cc3C2)nn2cnnc2c1C [Compound 66, 6-(7,8-dimethyl-[1,2,4]triazolo[4,3-b]pyridazin-6-yl)-N-[2-fluoro-3-(trifluoromethyl)phenyl]-7,8-dihydro-5H-1,6-naphthyridin-3-amine] | 95% | 882 nM |

Continued by falling EC50, values first:

| Emax at 30 µM | EC50 | SMILES |
| --- | --- | --- |
| 85% | 241 nM | CSc1ccccc1Nc1cnc2c(c1)CN(c1nn3cnnc3c(C)c1C)CC2 [Compound 55, 6-(7,8-dimethyl-[1,2,4]triazolo[4,3-b]pyridazin-6-yl)-N-(2-methylsulfanylphenyl)-7,8-dihydro-5H-1,6-naphthyridin-3-amine] |
| 86% | 219 nM | Cc1c(N2CCc3ncc(Nc4cccc(Cl)c4F)cc3C2)nn2cnnc2c1C [Compound 67, N-(3-chloro-2-fluoro-phenyl)-6-(7,8-dimethyl-[1,2,4]triazolo[4,3-b]pyridazin-6-yl)-7,8-dihydro-5H-1,6-naphthyridin-3-amine] |
| 85% | 211 nM | Cc1c(N2CCc3ncc(Nc4ccccc4Cl)cc3C2)nn2cnnc2c1C [Compound 50, N-(2-chlorophenyl)-6-(7,8-dimethyl-[1,2,4]triazolo[4,3-b]pyridazin-6-yl)-7,8-dihydro-5H-1,6-naphthyridin-3-amine] |
| 104% | 188 nM | COc1cccc(Nc2cnc3c(c2)CN(c2nn4cnnc4c(C)c2C)CC3)c1F [Compound 65, 6-(7,8-dimethyl-[1,2,4]triazolo[4,3-b]pyridazin-6-yl)-N-(2-fluoro-3-methoxy-phenyl)-7,8-dihydro-5H-1,6-naphthyridin-3-amine] |
| 82% | 180 nM | Cc1ncc(-c2cnc3c(c2)CN(c2nn4cnnc4c(C)c2C)CC3)s1 [Compound 60, 5-[6-(7,8-dimethyl-[1,2,4]triazolo[4,3-b]pyridazin-6-yl)-7,8-dihydro-5H-1,6-naphthyridin-3-yl]-2-methyl-thiazole] |
| 89% | 171 nM | Cc1nc(C)c(-c2cnc3c(c2)CN(c2nn4cnnc4c(C)c2C)CC3)s1 [Compound 61, 5-[6-(7,8-dimethyl-[1,2,4]triazolo[4,3-b]pyridazin-6-yl)-7,8-dihydro-5H-1,6-naphthyridin-3-yl]-2,4-dimethyl-thiazole] |
| 90% | 152 nM | COc1ccccc1Nc1cnc2c(c1)CN(c1nn3cnnc3c(C)c1C)CC2 [Compound 54, 6-(7,8-dimethyl-[1,2,4]triazolo[4,3-b]pyridazin-6-yl)-N-(2-methoxyphenyl)-7,8-dihydro-5H-1,6-naphthyridin-3-amine] |
| 80% | 147 nM | Cc1ccc(Nc2cnc3c(c2)CN(c2nn4cnnc4c(C)c2C)CC3)c(F)c1 [Compound 48, 6-(7,8-dimethyl-[1,2,4]triazolo[4,3-b]pyridazin-6-yl)-N-(2-fluoro-4-methyl-phenyl)-7,8-dihydro-5H-1,6-naphthyridin-3-amine] |
| 108% | 92.9 nM | Cc1c(N2CCc3ncc(C(C)(C)O)cc3C2)nn2cnnc2c1C [Compound 62, 2-[6-(7,8-Dimethyl-[1,2,4]triazolo[4,3-b]pyridazin-6-yl)-7,8-dihydro-5H-1,6-naphthyridin-3-yl]propan-2-ol] |
| 80% | 92.1 nM | Cc1c(N2CCc3ncc(Nc4c(F)cccc4F)cc3C2)nn2cnnc2c1C [Compound 47, N-(2,6-difluorophenyl)-6-(7,8-dimethyl-[1,2,4]triazolo[4,3-b]pyridazin-6-yl)-7,8-dihydro-5H-1,6-naphthyridin-3-amine] |
| 91% | 86.1 nM | Cc1ccccc1Nc1cnc2c(c1)CN(c1nn3cnnc3c(C)c1C)CC2 [Compound 53, 6-(7,8-dimethyl-[1,2,4]triazolo[4,3-b]pyridazin-6-yl)-N-(o-tolyl)-7,8-dihydro-5H-1,6-naphthyridin-3-amine] |
| 82% | 82.4 nM | Cc1c(N2CCc3ncc(Nc4cccc(F)c4F)cc3C2)nn2cnnc2c1C [Compound 49, N-(2,3-difluorophenyl)-6-(7,8-dimethyl-[1,2,4]triazolo[4,3-b]pyridazin-6-yl)-7,8-dihydro-5H-1,6-naphthyridin-3-amine] |
